Reference: ChEMBL document CHEMBL5608141, “Identification of compartment-specific drug sensitivities in CRC organoid-stroma co-cultures” (2024)

What was measured:
Type in all cases: functional, Homo sapiens
Set-up in all cases: dose or concentration left out as unconfirmed
Colon cancer organoid [1] = assay: Identification of compartment-specific drug sensitivities in O14 CRC organoid-stroma F14 CAF co-cultures. Organoid is transduced with Lucferase2-P2A-EGFP lentivirus, fibroblast with Renilla-dsRed lentivirus. Dual-Glo Luciferase assay is used to report viability data.
Colon cancer organoid [2] = assay: Identification of compartment-specific drug sensitivities in O06 CRC organoid-stroma F06 CAF co-cultures. Organoid is transduced with Lucferase2-P2A-EGFP lentivirus, fibroblast with Renilla-dsRed lentivirus. Dual-Glo Luciferase assay is used to report viability data.
Colon cancer organoid [3] = assay: Identification of compartment-specific drug sensitivities in O20 CRC organoid-stroma F20 CAF co-cultures. Organoid is transduced with Lucferase2-P2A-EGFP lentivirus, fibroblast with Renilla-dsRed lentivirus. Dual-Glo Luciferase assay is used to report viability data.
[4] = Transduced with Lucferase2-P2A-EGFP lentivirus
[5] = Transduced with Renilla-dsRed lentivirus

Compound | Cell Viability (Colon cancer organoid [1]; [4]) [%] | Cell Viability (Colon cancer organoid [1]; [5]) [%] | Cell Viability (Colon cancer organoid [2]; [4]) [%] | Cell Viability (Colon cancer organoid [2]; [5]) [%] | Cell Viability (Colon cancer organoid [3]; [4]) [%] | Cell Viability (Colon cancer organoid [3]; [5]) [%]
COc1ccc2c(c1)O[C@H](c1ccc(OC)c(OC)c1)C[C@@H]2NC(=O)C1(c2ccc3c(c2)OC(F)(F)O3)CC1 [A-1596584] | 91.0132 | 118.771 | 86.7173 | 88.6658 | 73.1553 | 142.746
CN1CCN(c2ccc(-c3cccc(CN4CCOCC4)c3)cc2NC(=O)c2c[nH]c(=O)cc2C(F)(F)F)CC1 | 95.9628 | 85.2187 | 91.1397 | 122.014 | 82.8822 | 116.555
CN1C[C@H](Nc2cnn(C)c(=O)c2Br)C[C@H](c2ccccc2)C1 | 132.078 | 105.854 | 52.3497 | 181.327 | 160.124 | 106.068
CC1=CC(C)=[N+]2C1=C(CCCCc1cn(CC(=O)N3CCc4nc(NC(=O)[C@H]5CCN(C#N)C5)sc4C3)nn1)c1c(C)cc(C)n1[B-]2(F)F | 84.8013 | 97.3387 | 125.029 | 111.523 | 77.3724 | 101.216
CCOC(=O)CCNc1cc(N2CCc3ccccc3CC2)nc(-c2cccnc2)n1 | 87.4597 | 97.4259 | 130.773 | 124.082 | 102.371 | 131.422
C[C@@H]1CN(c2cc(-c3nn(C)c4ccc(OC5(C)CC5)cc34)ncn2)C[C@H](C)O1 [MLi-2-NC] | 144.766 | 104.291 | 55.8067 | 87.1439 | 112.711 | 86.6644
O=C(NOCC1CC1)c1ccc(F)c(F)c1Nc1ccc(I)cc1Cl [CI-1040] | 35.7635 | 62.5859 | 38.2974 | 73.8424 | 44.1491 | 195.336
C[C@@H]1CCc2ncc(F)cc2[C@H]2CCCN2c2ccn3ncc(c3n2)C(=O)N1 [SELITRECTINIB] | 99.8274 | 100.464 | 101.733 | 118.761 | 168.559 | 73.3915
O=C1c2ccc(Nc3ccc(F)cc3F)cc2CCc2ccc(OC[C@H](O)CO)cc21 [Skepinone-L] | 166.491 | 75.8508 | 115.343 | 88.0925 | 88.6485 | 86.6611
COc1ccc(COc2ccc(Cc3cnc(N)nc3N)cc2OC)cc1 [GW632580X] | 144.194 | 102.086 | 84.8428 | 83.7807 | 200.298 | 84.9331
CC(C)S(=O)(=O)c1ccc2nccc(Nc3ccc4scnc4c3)c2c1 | 128.948 | 98.4032 | 84.0973 | 95.5761 | 147.82 | 98.2209
CC[C@H](CO)Nc1nc(NCc2ccccc2)c2ncn(C(C)C)c2n1 [SELICICLIB] | 121.256 | 106.182 | 93.234 | 112.199 | 126.177 | 75.3934
CCN(CC)S(=O)(=O)Nc1cccc(-c2ccc3c(NC(=O)C4CC4)n[nH]c3c2)c1 | 139.261 | 96.9304 | 76.8554 | 107.031 | 76.1767 | 136.148
Cn1nc(C(=O)NCc2ccc(C(=O)O)cc2)cc1-c1ccc2[nH]ccc2c1 [BI 4395] | 88.69 | 99.7693 | 119.737 | 69.3241 | 100.657 | 92.7545
COc1ccc(CCc2nc3cc(-c4c(C)noc4C)ccc3n2C[C@H](C)N2CCOCC2)cc1Cl | 147.618 | 121.055 | 78.634 | 97.126 | 96.1019 | 133.846
FC(F)(F)c1ccc2c(c1)nc(-c1cccnc1)n2C1CC1 [MSD-CYP11B2-Negative-control] | 73.196 | 81.5774 | 103.115 | 83.1787 | 98.4614 | 114.7
Cn1cc(CCn2cnc(-c3cnn(C)c3)c2-c2ccc(C#N)cc2)cn1 | 93.9691 | 90.5921 | 101.212 | 117.261 | 163.337 | 107.326
OCCn1cc(-c2cnc3nnn(Cc4ccc5ncccc5c4)c3n2)cn1 [PF-04217903] | 55.9796 | 102.526 | 88.0795 | 107.387 | 122.103 | 97.2338
Cn1cc(Cl)c2c(Oc3c(F)cc(Nc4cc(Cl)nc(N)n4)cc3F)ccnc21 [BAY-4900] | 86.5863 | 82.0192 | 121.536 | 149.241 | 91.1614 | 109.2
